Tests used:
5-Lipoxygenase = target: T1, 5-Lipoxygenase (Rattus norvegicus, UniProt P12527); assay: ARBL whole cell 5-lipoxygenase assay (LTB4 formation in RBL-1 cells); type: cell-based; settings: A23187 (5 μM) stimulated, LTB4 formation by RIA, read-out: % Inhibition at 10 μM Conc, ARBL
T1 construct: host or cells: RBL-1 (rat basophilic leukemia)
T1 sequence (P12527 1-673): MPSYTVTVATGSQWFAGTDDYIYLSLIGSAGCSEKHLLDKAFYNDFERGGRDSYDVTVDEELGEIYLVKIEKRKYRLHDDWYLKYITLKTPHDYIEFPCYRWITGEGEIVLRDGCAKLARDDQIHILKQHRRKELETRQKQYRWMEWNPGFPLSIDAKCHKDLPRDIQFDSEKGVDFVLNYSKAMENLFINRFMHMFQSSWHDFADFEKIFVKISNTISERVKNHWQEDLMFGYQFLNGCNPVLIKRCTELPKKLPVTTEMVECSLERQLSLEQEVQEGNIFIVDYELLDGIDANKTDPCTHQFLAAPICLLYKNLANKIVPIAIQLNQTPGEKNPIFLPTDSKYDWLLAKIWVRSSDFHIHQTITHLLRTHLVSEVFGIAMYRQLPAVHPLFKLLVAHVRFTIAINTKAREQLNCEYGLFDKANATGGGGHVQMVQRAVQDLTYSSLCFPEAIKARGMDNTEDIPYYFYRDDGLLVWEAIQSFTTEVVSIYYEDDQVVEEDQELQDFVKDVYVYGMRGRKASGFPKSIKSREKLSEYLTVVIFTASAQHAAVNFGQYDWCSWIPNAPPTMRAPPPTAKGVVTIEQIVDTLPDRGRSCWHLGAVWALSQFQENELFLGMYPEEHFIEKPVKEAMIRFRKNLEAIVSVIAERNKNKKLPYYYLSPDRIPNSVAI
Protocol: (§1) A description of each procedure follows. ARBL/ARBC Whole Cell 5-Lipoxygenase and Cyclooxygenase Assays The rat basophilic leukemia cell line (RBL-1) was obtained from the American Type Culture Collection (Rockville, Md.). Radioimmunoassay (RIA) kits of LTB4 and PGF2α were obtained from Amersham (Arlington Heights, Ill.) and Seragen (Boston, Mass.), respectively. All tissue culture media were obtained from GIBCO (Grand Island, N.Y.). RBL-1 cells are grown in suspension culture in Eagle's minimum essential medium supplemented with 12% fetal bovine serum at 37° C. in an incubator supplied with air-5% carbon dioxide. Cells are harvested by centrifugation. They are washed with cold phosphate buffered saline pH 7.4 (PBS; NaCl, 7.1 g; NaHPO, 1.15 g; KHPO, 0.2 g; and KCl, 0.2 g/l). Cells are finally suspended in PBS containing 1.0 mM calcium at a density of […] cells/ml. Cells are incubated with and without test agent (in DMSO) (1% DMSO is without effect on arachidonic acid metabolism) for ten minutes at room temperature. Calcium ionophore A23187 (5 μM) is added and cells are incubated for seven minutes at 37° C. The reaction is stopped by chilling the tubes on ice for ten minutes. Cells are separated by centrifugation and the supernatant is stored at […]. Aliquots (100 μL) are analyzed for LTB4 and PGF2α using radioimmunoassay kits as provided by the supplier. Biochemical data obtained from this whole cell assay may be shown as IC50 s which are calculated as the amount of test compound causing 50% inhibition of LTB4 or PGF2α formation. The following Table exemplifies the data for the present invention.

Cyclooxygenase = assay: ARBC whole cell cyclooxygenase assay (PGF2α formation in RBL-1 cells); type: cell-based, rat; settings: A23187 (5 μM) stimulated, PGF2α formation by RIA
Protocol: as §1

inhibition at 10 µM (5-Lipoxygenase) [%] | Structure (SMILES) | % Inhibition at 10 μM Conc, ARBC (Cyclooxygenase) [%]
60 | CC(C)(C)c1nc(C=C2SC(=O)NC2=O)nc(C(C)(C)C)c1O [Example 8] | 68
32 | CC(C)(C)c1nc(C=C2SC(=N)NC2=O)nc(C(C)(C)C)c1O [Example 7, 5-[[4,6-Bis-(1,1-dimethylethyl]-5-hydroxy-2-pyrimidinyl]methylene]-2-imino-4-thiazolidinone] | 56
91 | CC(C)(C)c1nc(C=C2SC(=S)NC2=O)nc(C(C)(C)C)c1O [Example 6, 5-[[4,6-Bis-(1,1-dimethylethyl)-5-hydroxy-2-pyrimidinyl]methylene]-2-thioxo-4-thiazolidinone] | 81
100 | CC(C)(C)c1nc(C=C2CCOC2=O)nc(C(C)(C)C)c1O [Example 16] | 93
46 | CON1CCC(=Cc2nc(C(C)(C)C)c(O)c(C(C)(C)C)n2)C1=O [Example 15, 3-[[4,6-Bis-(1,1-dimethylethyl)-5-hydroxy-2-pyrimidinyl]methylene]-N-methoxy-pyrrolidin-2-one] | 88

Reference: US5270319A, “5-hydroxy-2-pyrimidinylmethylene derivatives useful as antiinflammatory agents” (Warner-Lambert Company, priority 1992, dated 1993)
